# Earlier results in patent US20170072004A1, “COMPOSITIONS AND METHODS FOR IMPROVING THE BIOAVAILABILITY OF CURCUMINOIDS” (priority 2015, published 2017).
# Details: rats, oral curcumin 2 g/kg, co-administration of piperine
structure (smiles),measurement,value
"COc1cc(/C=C/C(=O)CC(=O)/C=C/c2ccc(O)c(OC)c2)ccc1O [curcumin, diferuloylmethane]",Increase in systemic bioavailability following oral dosing,≤ 154%
